“Also recorded” adds a separate entry of the source.
What was measured:
[1] = test system: SARS-CoV-2; format: cell-based; details: VeroE6 cells
[2] = test system: SARS-CoV-2^WK−521; test: Immunocytochemistry assay of infected VeroE6 cells; format: cell-based; details: for infected cells by immunocytochemistry: VeroE6 cells exposed to SARS-CoV-2^WK−521; for infectivity and cytopathic effect of SARS-CoV-2: VeroE6^TMPRSS2 cells
[3] = target: SARS-CoV-2 3CLpro (Severe acute respiratory syndrome coronavirus 2, UniProt P0DTD1); test: SARS-CoV-2 3CLpro; format: biochemical
[4] = test system: VeroE6 cells

SMILES | infected cells by immunocytochemistry ([2]; 1 μM compound) | infected cells by immunocytochemistry ([2]; 10 μM compound) | infected cells by immunocytochemistry ([2]; 100 μM compound) | infectivity and cytopathic effect of SARS-CoV-2 [2] | also measured
CC(C)(C)NC(=O)N[C@H](C(=O)N1C[C@H]2[C@@H]([C@H]1C(=O)N[C@H](C#N)C[C@@H]1CCNC1=O)C2(C)C)C(C)(C)C [Compound 5m, (1R,2S,5S)-3-((S)-2-(3-(Tert-butyl)ureido)-3,3-dimethylbutanoyl)-N-((S)-1-cyano-2-((S)-2-oxopyrrolidin-3-yl)ethyl)-6,6-dimethyl-3-azabicyclo[3.1.0]hexane-2-carboxamide] |  |  |  |  | loss of antiviral activity compared to Boc-derivative 5g [1]: 3 fold
CC(C)(C)[C@H](NC(=O)OCc1cccnc1)C(=O)N1C[C@H]2[C@@H]([C@H]1C(=O)N[C@H](C#N)C[C@@H]1CCNC1=O)C2(C)C [Compound 5k, Pyridin-3-ylmethyl((2S)-1-((1R,2S,5S)-2-((1-cyano-2-((S)-2-oxopyrrolidin-3-yl)ethyl)carbamoyl)-6,6-dimethyl-3-azabicyclo[3.1.0]hexan-3-yl)-3,3-dimethyl-1-oxobutan-2-yl)carbamate] |  |  |  |  | improvement of antiviral activity compared to benzyl carbamate derivative 5i [1]: > 8 fold
CC(C)(C)[C@H](NC(=O)C(F)(F)F)C(=O)N1C[C@H]2[C@@H]([C@H]1C(=O)N[C@H](C#N)C[C@@H]1CCNC1=O)C2(C)C [Nirmatrelvir, (1R,2S,5S)-N-((S)-1-Cyano-2-((S)-2-oxopyrrolidin-3-yl)ethyl)-3-((S)-3,3-dimethyl-2-(2,2,2-trifluoroacetamido)butanoyl)-6,6-dimethyl-3-azabicyclo[3.1.0]hexane-2-carboxamide, reference compound] | complete viral breakthrough | hardly any infected cells | hardly any infected cells | potently blocked | 
CC(C)(C)[C@H](NC(=O)C(Cl)(Cl)Cl)C(=O)N1C[C@H]2[C@@H]([C@H]1C(=O)N[C@H](C#N)C[C@@H]1CCCNC1=O)C2(C)C [Compound 5f, (1R,2S,5S)-N-((S)-1-Cyano-2-((S)-2-oxopiperidin-3-yl)ethyl)-3-((S)-3,3-dimethyl-2-(2,2,2-trichloroacetamido)butanoyl)-6,6-dimethyl-3-azabicyclo[3.1.0]hexane-2-carboxamide] |  |  |  |  | improvement in antiviral activity over nirmatrelvir 1 ([1]; ratio of EC50 values): over 7 fold
CC(C)(C)[C@H](NC(=O)C(F)(F)F)C(=O)N1C[C@H]2[C@@H]([C@H]1C(=O)N(C(=O)C(F)(F)F)[C@H](C#N)C[C@@H]1CCNC1=O)C2(C)C [Compound 5h, (1R,2S,5S)-N-((S)-1-Cyano-2-((S)-2-oxopyrrolidin-3-yl)ethyl)-3-((S)-3,3-dimethyl-2-(2,2,2-trifluoroacetamido)butanoyl)-6,6-dimethyl-N-(2,2,2-trifluoroacetyl)-3-azabicyclo[3.1.0] hexane-2-carboxamide] |  |  |  |  | Mpro inhibitory activity (in words) [3]: no appreciable; antiviral activity (in words) [1]: no appreciable
CC(C)(C)[C@H](NC(=O)C(F)(F)F)C(=O)N1C[C@H]2[C@@H]([C@H]1C(=O)N[C@H](C#N)C[C@@H]1CCCNC1=O)C2(C)C [Compound 5e, (1R,2S,5S)-N-((S)-1-Cyano-2-((S)-2-oxopiperidin-3-yl)ethyl)-3-((S)-3,3-dimethyl-2-(2,2,2-trifluoroacetamido)butanoyl)-6,6-dimethyl-3-azabicyclo[3.1.0]hexane-2-carboxamide] | some infected cells were observed | hardly any infected cells | hardly any infected cells | significantly reduced; also recorded: potently blocked | improvement of Mpro inhibitory activity over nirmatrelvir 1 ([3]; ratio of Ki values): more than 6 fold; toxicity [4]: without significant toxicity
